Several values for one entry are separate records, joined by “and”; a condition that tells them apart may be missing. Equal entries are not always repeated.
Key:
Format in all cases: physicochemical
[1] = Estimated solubility by aliquot addition of solvent, visual inspection; settings: for solubility: thermodynamic from solid
Method: The present disclosure provides morphic Form II with low solubility in methanol. The solubility may be estimated based on the total volume of solvent needed to provide complete dissolution. The actual solubility may be greater than the value calculated due to the incremental addition of solvent and kinetics of dissolution of the material. […] Solubility Determination: Aliquots of test solvents or solvent mixtures were added to weighed samples of Compound 1. Samples were sonicated as needed between additions to facilitate dissolution. Complete dissolution of the test material in each solvent was determined by visual inspection. The solubility was estimated based on the total volume of solvent needed to provide complete dissolution. The actual solubility may be greater than the value calculated due to the incremental addition of solvent and kinetics of dissolution of the material. […] See Table 2 and discussion under “Solubility” section in the “Detailed Description” of the present disclosure.

[2] = Methanol solubility and metastable zone (MSZ), Crystal16; settings: for Cloud Point 2: 0.03 C./min cooling rate; for Cloud Point 1: 0.5° C./min cooling rate
Method: MSZW is a nucleation kinetic-limited parameter that is highly dependent on process condition. Many factors may influence the value of MSZW, e.g., rate of cooling, agitation, the presence of foreign particles and impurities. MSZW decreases as stirrer speed increases; MSZW widens at N>400 rpm; and MSZW widens as cooling rate rises. In one embodiment, large differences in the metastable zone are observed for both Form II and Form I between the rapid cooling rate of about 0.5° C./min and a very slow cooling rate of about 0.03° C./min. In another embodiment, narrow metastable cooling rates are observed at higher concentrations (e.g., about 100 mg/mL).

[3] = Slurry conversion of Form II to Form H in methanol:water, seeded with Form H; settings: for Results (form recovered from slurry): stirred 7-9 days
Method: The present disclosure provides that an anhydrous form (e.g. Form II) is produced without forming a hydrate form (e.g., Form H) during the crystallization process, by determining the critical water concentration below which the anhydrous form is the stable form. The critical water concentration is determined by varying the methanol-water concentrations in the slurries.
In another embodiment, at concentrations of 97:3 methanol:water and greater, Form H was recovered from the slurries. These embodiments provide that the critical water concentration for forming Form II is between 1 and 3% water. In some embodiments, water in the initial methanol solvent is not accounted for, which results in slightly higher final water concentration than 1 and 3%. In additional embodiments, experiments, by varying the methanol-water concentrations in the slurries, is carried out at room temperature or at about 45° C. In one embodiment, the critical water concentration is less than 5% at room temperature and less than 10% at about 45° C. Mixtures of Form II and Form H are observed to convert to either Form II or Form H in methanol depending on the exact water content. The present disclosure provides that during crystallization of Form II, critical water activity remains very low up to about 45° C. and that water content in the final methanol recrystallization is a critical process parameter to control to avoid operating in conditions which favors formation of Form H.

[4] = Relative humidity (RH) stressing of Form II
Text: In some embodiments, a composition comprising morphic Form II of the present disclosure converts to a hydrate Form (e.g., Form H) if stored under relative humidity (RH) of 40% or more. In some embodiments, a composition comprising morphic Form II of the present disclosure partially converts to morphic Form H if stored under relative humidity of equal to or more than 40% for several days. […] A complete conversion of a composition comprising the morphic Form II of the present disclosure occurs at about equal to or more than 80% RH, about equal to or more than 81% RH, about equal to or more than 82% RH, about equal to or more than 83% RH, about equal to or more than 84% RH, about equal to or more than 85% RH, about equal to or more than 86% RH, about equal to or more than 87% RH, about equal to or more than 88% RH, about equal to or more than 89% RH over between 5-20 days (e.g., 5 days, 6 days, 7 days, 8 days, 9 days, 10 days, 11 days, 12 days, 13 days, 14 days, 15 days, 16 days, 17 days, 18 days, 19 days, 20 days).
The present disclosure provides that exposure of Form II to higher humidity is sufficient for conversion to the hydrate form.

[5] = Stable form screening slurries and interconversion studies; settings: for Form recovered from slurries: seeded with Form I, about two weeks
Method: In order to aid in the design of solid form screening experiments, solubility estimates were completed in various solvent systems using Form II at ambient and elevated temperature. […] Slurries were set up in a variety of solvent systems to determine the stable form and the potential of Compound 1 to form stable solvates. The slurries were prepared using Form II and each was seeded with Form I. Each of the slurries was stirred for about two weeks and most of the slurries were run at room temperature although a few were run at sub-ambient and elevated temperatures (˜45° C.). […] A few samples did show a minor amount of Form I in Form II likely due to poor conversion kinetics due to limited solubility. […] Interconversion studies starting with a mixture of Form I and Form II were also run in methanol at room temperature and ˜45° C.

[6] = Particle size analysis (PSA), Malvern Mastersizer 2000
Text: Particle size data was acquired using a Malvern Instruments Mastersizer 2000 equipped with a Hydro2000 μP dispersion unit. Data was collected and analyzed using Mastersizer 2000 software (v. 5.60) using volume based measurements. NIST-traceable glass beads were used to qualify the instrument.

[7] = Weight increase upon increasing relative humidity; settings: upon increasing relative humidity from 5.0% to 95.0%
Text: In another embodiment of the invention, provided herein is Form II characterized as a solid form of Compound 1, such that the solid form undergoes a weight increase of less than 1.5% upon increasing relative humidity from 5.0% to 95.0%.

[8] = crystallized from methanol ~10 vols, seed ~0.5% Form II at ~58° C.
[9] = crystallized from methanol ~10 vols, seed ~3% Form II
[10] = 10% of total volume of particles no larger than the indicated size
[11] = 50% of total volume of particles no larger than the indicated size
[12] = 90% of total volume of particles no larger than the indicated size

## CCCCCCCCCCCCCCCCOCCCOP(=O)(O)CO[C@H](CO)Cn1ccc(N)nc1=O [Form II, phosphonic acid, [[(S)-2-(4-amino-2-oxo-1(2H)-pyrimidinyl)-1-(hydroxymethyl)ethoxy]methyl]mono[3-(hexadecyloxy)propyl] ester]
[1]; ambient and elevated temperature, each of the solvents tested
  Solubility in various solvent systems: poor solubility
[1]; aqueous with cosolvent or surfactant or cyclodextrin, Methanol:Water 1:1, RT, estimated
  solubility: < 3000 µg/mL
[1]; aqueous with cosolvent or surfactant or cyclodextrin, Methanol:Water 1:1, ~63 °C, estimated
  solubility: < 14000 µg/mL
[1]; organic solvent or mixture, Trifluoroethanol, estimate
  solubility: > 5000 µg/mL
[2]
  Solubility in methanol compared to Form I: Lower solubility
[2]; 20.3 mg/mL
  Clear Point: 53.6 °C
  Cloud Point 2: 38.2 °C
  Cloud Point 1: 37.6 °C
[2]; 29.4 mg/mL
  Clear Point: 56.2 °C
  Cloud Point 2: 44.6 °C
  Cloud Point 1: 45.1 °C
[2]; 38.9 mg/mL
  Clear Point: 58.1 °C
  Cloud Point 2: 51.1 °C
  Cloud Point 1: 45.1 °C
[2]; 50.5 mg/mL
  Clear Point: 60.2 °C
  Cloud Point 2: 56.6 °C
  Cloud Point 1: 51.0 °C
[2]; 64.3 mg/mL
  Clear Point: 60.5 °C
  Cloud Point 2: 58.8 °C
  Cloud Point 1: 48.5 °C
[2]; 80.4 mg/mL
  Clear Point: 61.2 °C
  Cloud Point 2: 57.9 °C
  Cloud Point 1: 49.7 °C
[2]; 95.6 mg/mL
  Clear Point: 61.9 °C
  Cloud Point 2: 59.9 °C
  Cloud Point 1: 58.1 °C
[2]; 166.6 mg/mL
  Clear Point: 63.1 °C
  Cloud Point 2: 61.1 °C
  Cloud Point 1: 58.1 °C
[3]; Methanol:water (80:20), ~44-45 °C
  Results (form recovered from slurry): Form H
[3]; Methanol:water (85:15), ~44-45 °C
  Results (form recovered from slurry): Form H
[3]; Methanol:water (90:10), RT
  Results (form recovered from slurry): Form H
[3]; Methanol:water (90:10), ~44-45 °C
  Results (form recovered from slurry): Form H
[3]; Methanol:water (93:7), RT
  Results (form recovered from slurry): Form H
[3]; Methanol:water (93:7), ~2-8 °C
  Results (form recovered from slurry): Form H
[3]; Methanol:water (95:5), RT
  Results (form recovered from slurry): Form H
[3]; Methanol:water (95:5), ~2-8 °C
  Results (form recovered from slurry): Form H
[3]; Methanol:water (95:5), ~44-45 °C
  Results (form recovered from slurry): Form II +
[3]; Methanol:water (97:3), RT
  Results (form recovered from slurry): Form II +
[3]; Methanol:water (97:3), ~2-8 °C
  Results (form recovered from slurry): Form H
[3]; Methanol:water (99:1), ~2-8 °C
  Results (form recovered from slurry): Form II
[3]; about 45° C. slurries in methanol:water
  critical water concentration: less than 10%
[3]; room temperature slurries in methanol:water
  critical water concentration: less than 5%
[4]; about 43% RH for about 12 days
  Conversion to hydrate form on RH exposure: partially converts to a hydrate form
[4]; about 43 to about 85% RH for about 12 days
  Conversion from Form II to Form H on RH exposure: minor conversion from Form II to Form H
[4]; about 85% RH
  Conversion from Form II to Form H on RH exposure: complete conversion of Form II to Form H
[5]; anhydrous solvent systems, mostly room temperature
  Form recovered from slurries: Form II was recovered
[5]; aqueous solvent systems
  Form recovered from slurries: converted to the hydrated form, Form H
[5]; starting with a mixture of Form I and Form II, methanol, room temperature and ~45° C.
  Solids recovered from interconversion studies: consistent with Form II
[6]; FIG. 5
  particle size distribution, volume weighted mean: 25.663
[6]; [8]
  d10: d10 = 17.8 μm
  d50: 69.6 μm;
  d90: d90 = 160.9 μm
[6]; [9]
  d10: d10 = 9.8 μm
  d50: 34.4 μm;
  d90: d90 = 101.7 μm
[7]
  weight increase: less than 1.5%

## CCCCCCCCCCCCCCCCOCCCOP(=O)(O)CO[C@H](CO)Cn1ccc(N)nc1=O [Sample 1]
[6]; [10]
  d10: 19.297 μm
[6]; [11]
  d50: 81.603 μm
[6]; [12]
  d90: 168.698 μm

## CCCCCCCCCCCCCCCCOCCCOP(=O)(O)CO[C@H](CO)Cn1ccc(N)nc1=O [Sample 3]
[6]; [10]
  d10: 19.896 μm
[6]; [11]
  d50: 101.748 μm and 101.745 μm

## CCCCCCCCCCCCCCCCOCCCOP(=O)(O)CO[C@H](CO)Cn1ccc(N)nc1=O [Sample 4]
[6]; [10]
  d10: 17.410 μm
[6]; [11]
  d50: 85.440 μm
[6]; [12]
  d90: 199.029 μm

Reference: patent publication US11912667B2, “Morphic forms of hexadecyloxypropyl-phosphonate esters and methods of synthesis thereof” (EMERGENT BIODEFENSE OPERATIONS LANSING LLC, priority 2013, dated 2024)
